Series [1] can be described thus: Single-dose toxicity: blood cell counting and biochemistry analyses. In kind it is in vivo, C57BL/6 male mice.
For series [2], the target named is T1, EGFR (Homo sapiens, UniProt P00533).
T1 construct: purchased BPS BS 40187
In words: PhosphoSens CSox-based kinase assay, EGFR. In kind it is biochemical. As to conditions: 1 mM, but not 0.1 mM; Figure 7. As to the method:
(§1) Kinase activity was measured using the PhosphoSenstechnology (AssayQuant Technologies Inc., Marlborough, MA) as detailed in the Supporting Information. […]
(§2) Visabron c (4-4) safety by in vitro evaluation using PhosphoSens - CSox based kinase assays:
(§3) A powerful method was used to measure the activity of recombinant protein kinases using a homogeneous and continuous (kinetic) format, where the level of chelation-enhanced fluorescence (CHEF) that is directly proportional to the amount of phosphorylated, real-time sensors consisting of sulfonamido-oxine (Sox) chromophore, linked to a peptide or protein substrates of selective kinases 6. […]
(§4) Kinase activity measurements: Kinase activity was measured continuously using the PhosphoSens® technology (AssayQuant Technologies Inc., Marlborough, MA) according to the manufacturers’ recommendations. This one-step homogeneous assay format uses chelation -enhanced fluorescence via optimized substrate sensors containing the unnatural fluorogenic amino -acid Sox. […]
(§5) Final reaction conditions : Protein kinase activity was determined in 54 mM HEPES, pH 7.5, 1 mM ATP, 1.2 mM DTT, 0.012% Brij-35, 0.52 mM EGTA, 10 mM MgCl2, 1% glycerol, 0.2mg/ml BSA, and 15 μM Sox -based sensor. […]

Series [3] has as its target T2, Abl (Homo sapiens, UniProt P00519).
T2 construct: purchased Carna 08-001
In words: PhosphoSens CSox-based kinase assay, Abl. The format is biochemical. As to conditions: 1 mM, but not 0.1 mM; Figure 7. On the procedure: as §1, §2, §3, §4, §5

[4] abbreviates: blood 24 hours after i.v. 500 mg/kg, n=5.

Numbered stars: 1 amine (or outer) side, 2 acyl side, 3 side chain; on linkers, the order of the positions; unused ones are H or OH. Bridge positions count the residues as written; N and C are the ends. Square brackets hold non-standard residues; d marks the D form. Peptide text beside a SMILES is read from it. CO = O=C([*:1])[*:2]; Nlys = NCCCCNCC(=O)O

T2 sequence (P00519 whole entry): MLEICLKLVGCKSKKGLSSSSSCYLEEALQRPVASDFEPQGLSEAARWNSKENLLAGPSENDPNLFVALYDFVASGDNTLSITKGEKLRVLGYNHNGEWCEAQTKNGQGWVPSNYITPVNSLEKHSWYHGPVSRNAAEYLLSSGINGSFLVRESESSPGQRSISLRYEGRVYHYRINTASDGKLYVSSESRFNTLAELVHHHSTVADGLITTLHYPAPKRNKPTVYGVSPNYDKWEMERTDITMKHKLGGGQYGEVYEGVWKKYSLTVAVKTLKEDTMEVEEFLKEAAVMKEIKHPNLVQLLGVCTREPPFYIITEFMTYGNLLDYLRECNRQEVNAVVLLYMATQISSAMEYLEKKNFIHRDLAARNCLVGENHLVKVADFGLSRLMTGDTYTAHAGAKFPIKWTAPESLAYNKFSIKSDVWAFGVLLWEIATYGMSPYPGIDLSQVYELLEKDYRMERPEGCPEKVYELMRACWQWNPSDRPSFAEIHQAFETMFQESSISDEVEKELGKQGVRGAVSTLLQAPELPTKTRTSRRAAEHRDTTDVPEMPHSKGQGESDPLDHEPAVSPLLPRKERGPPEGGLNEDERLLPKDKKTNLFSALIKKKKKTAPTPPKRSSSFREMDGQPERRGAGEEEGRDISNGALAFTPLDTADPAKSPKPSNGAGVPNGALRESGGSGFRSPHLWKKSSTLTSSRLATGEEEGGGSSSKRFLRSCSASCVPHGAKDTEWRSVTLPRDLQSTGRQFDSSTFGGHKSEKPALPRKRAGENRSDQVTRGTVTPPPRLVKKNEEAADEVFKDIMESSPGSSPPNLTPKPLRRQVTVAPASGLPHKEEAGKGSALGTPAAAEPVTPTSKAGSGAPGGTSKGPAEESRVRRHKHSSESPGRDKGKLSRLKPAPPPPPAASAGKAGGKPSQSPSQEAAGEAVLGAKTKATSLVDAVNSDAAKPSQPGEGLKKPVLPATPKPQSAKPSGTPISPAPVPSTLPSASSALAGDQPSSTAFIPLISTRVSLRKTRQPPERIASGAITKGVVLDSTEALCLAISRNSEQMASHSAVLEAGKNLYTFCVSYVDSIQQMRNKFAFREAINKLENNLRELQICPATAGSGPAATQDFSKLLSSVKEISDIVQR
T1 sequence (P00533 25-1210): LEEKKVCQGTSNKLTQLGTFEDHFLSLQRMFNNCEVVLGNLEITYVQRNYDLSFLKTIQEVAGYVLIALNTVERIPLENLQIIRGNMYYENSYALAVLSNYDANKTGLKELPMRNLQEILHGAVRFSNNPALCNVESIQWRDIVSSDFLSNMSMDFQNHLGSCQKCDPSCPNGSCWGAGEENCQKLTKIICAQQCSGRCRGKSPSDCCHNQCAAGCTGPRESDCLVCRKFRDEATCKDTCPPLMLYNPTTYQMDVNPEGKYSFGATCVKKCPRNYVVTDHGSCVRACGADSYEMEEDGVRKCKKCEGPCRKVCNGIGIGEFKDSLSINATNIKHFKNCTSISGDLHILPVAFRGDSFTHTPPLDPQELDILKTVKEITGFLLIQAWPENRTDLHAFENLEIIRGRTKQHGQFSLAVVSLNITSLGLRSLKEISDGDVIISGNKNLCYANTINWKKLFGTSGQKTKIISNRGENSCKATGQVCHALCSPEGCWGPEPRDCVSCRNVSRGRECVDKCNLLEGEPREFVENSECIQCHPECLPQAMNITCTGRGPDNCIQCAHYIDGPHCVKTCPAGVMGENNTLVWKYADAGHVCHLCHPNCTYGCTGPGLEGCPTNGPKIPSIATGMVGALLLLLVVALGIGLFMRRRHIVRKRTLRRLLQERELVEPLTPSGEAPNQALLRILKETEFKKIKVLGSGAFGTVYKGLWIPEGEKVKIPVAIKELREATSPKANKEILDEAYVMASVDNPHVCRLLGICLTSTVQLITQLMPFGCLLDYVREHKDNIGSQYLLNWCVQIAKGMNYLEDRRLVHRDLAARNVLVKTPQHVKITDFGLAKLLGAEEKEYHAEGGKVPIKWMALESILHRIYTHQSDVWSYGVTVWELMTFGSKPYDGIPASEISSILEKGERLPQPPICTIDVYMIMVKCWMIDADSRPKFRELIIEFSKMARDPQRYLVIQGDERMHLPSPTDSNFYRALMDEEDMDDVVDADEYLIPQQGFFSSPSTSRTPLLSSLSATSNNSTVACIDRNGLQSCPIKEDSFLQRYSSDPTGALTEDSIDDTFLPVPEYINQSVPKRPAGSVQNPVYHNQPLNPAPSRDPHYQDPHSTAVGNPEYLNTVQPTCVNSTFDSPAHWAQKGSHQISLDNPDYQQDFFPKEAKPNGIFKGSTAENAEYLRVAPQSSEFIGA

With `CSCC[C@@H]1NC(=O)[C@H]([C@@H](C)O)NC(=O)CN(C(=O)[C@@H](N)CCCCN)CCCCNC(=O)NCCCCN(CC(=O)N[C@@H](CC(C)C)C(N)=O)C(=O)[C@H](CC(=O)O)NC(=O)[C@H](CC(C)C)NC1=O` [visabron c (4–4)] (H-K[Nlys]TMLD[Nlys]L-NH2; linker 2-7 via CO), the “Acute tolerability, single dose” value in series [1] (24 h after i.v. injection, C57BL/6 male mice) came out at 500 mg/kg. Besides, the “Blood count and electrolytes vs control mice” value in series [1] (24 hours from i.v. injection, dose printed 250 mg/kg in this block) is listed as “No significant differences”. In series [1] (setting [4]), this molecule came in with an ALP of 84±7 U/L, an ALT of 41±4 U/L, an AST of 92±11 U/L and an Albumin of 2.8±0.2 gr/dL. Further, in series [1] (setting [4]), the BUN came out at 14 ± 3.2 mg/dL, the Calcium was found to be 9.8 ± 1.2 mg/dL, the Chloride came out at 105 ± 9.2 mmol/L and the Cholesterol is 105 ± 8.6 mg/dL. In series [1] (setting [4]), the Creatinine was found to be 0.3 ± 0.07 mg/dL, the Glucose turned out to be 279 ± 31 mg/dL, the HCT worked out at 45±2.5% and the HGB was determined as 14.8 ± 0.5 g/dL. Moreover, in series [1] (setting [4]), the MCH stood at 14.8 ± 0.6 pg, the MCHC is 29 ± 1.3 g/dL, the MCV came out at 48 ± 2.5 fL and the MPV was 5 ± 0.9 fL. Moreover, in series [1] (setting [4]), the RBC turned out to be 9.0±0.9 m/ µL, the RDW is reported as 17.1±0.4% and the WBC is recorded as 7.9±0.8 k/µL. The inhibition (in general, how much of the control response was suppressed) at 1000 µM in series [2] lay within 25 to 40%. Moreover, in series [3], the inhibition at 1000 µM lay within 25 to 40%.
